Where “and” joins values, the source holds several entries; their conditions need not be identical. Equal entries are not always repeated. Inconclusive results and toxic doses are left out.
Test system: B6C3F1 mice, ip Sarcoma M5076, median survival T/C
Assay: NCI In Vivo Anticancer Drug Screen. Data for tumor model Sarcoma M5076 (intraperitoneal) in B6C3F1 mice
Conditions: endpoint: median survival time, schedule: Q04DX004 (ip), higher = longer survival
How it was run: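 Survival measured in treated (T) and vehicle control (C) mice with transplantable tumour; result given as T divided by C.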

[1] = dose: 20.0 mg/kg/injection, vehicle: saline
[2] = dose: 40.0 mg/kg/injection, vehicle: saline
[3] = dose: 50.0 mg/kg/injection, vehicle: Klucel (hydroxypropylcellulose) (HPC)
[4] = dose: 100.0 mg/kg/injection, vehicle: Klucel (hydroxypropylcellulose) (HPC)
[5] = dose: 200.0 mg/kg/injection, vehicle: Klucel (hydroxypropylcellulose) (HPC)
[6] = dose: 400.0 mg/kg/injection, vehicle: Klucel (hydroxypropylcellulose) (HPC)
[7] = dose: 800.0 mg/kg/injection, vehicle: Klucel (hydroxypropylcellulose) (HPC)
[8] = dose: 37.5 mg/kg/injection, vehicle: saline with Tween-80
[9] = dose: 75.0 mg/kg/injection, vehicle: saline with Tween-80
[10] = dose: 150.0 mg/kg/injection, vehicle: saline with Tween-80
[11] = dose: 25.0 mg/kg/injection, vehicle: saline with Tween-80
[12] = dose: 50.0 mg/kg/injection, vehicle: saline with Tween-80
[13] = dose: 100.0 mg/kg/injection, vehicle: saline with Tween-80
[14] = dose: 200.0 mg/kg/injection, vehicle: saline
[15] = dose: 400.0 mg/kg/injection, vehicle: saline

Structure (SMILES): COc1cc2c(c(OC)c1OC)-c1ccc(OC)c(=O)cc1[C@@H](N)CC2
- T/C (dose: 5.0 mg/kg/injection, vehicle: saline): 119 % of control
- T/C (dose: 5.0 mg/kg/injection, vehicle: suspension in saline): 116 % of control
- T/C (dose: 8.6 mg/kg/injection, vehicle: suspension in saline): 123 % of control
- T/C (dose: 10.0 mg/kg/injection, vehicle: suspension in saline): 118 % of control
- T/C [1]: 152 % of control
- T/C (dose: 24.0 mg/kg/injection, vehicle: suspension in saline): 123 % of control
- T/C [2]: 157 % of control

Structure (SMILES): CC(C)(C)c1cc(C2C(C#N)C(=O)NC(=O)C2C#N)cc(C(C)(C)C)c1O (stereo not drawn)
- T/C [3]: 88 % of control
- T/C [4]: 97 % of control
- T/C [5]: 93 % of control
- T/C [6]: 95 % of control
- T/C [7]: 97 % of control

Structure (SMILES): CC[n+]1c([S-])nn(C)c1-c1cnccn1
- T/C [8]: 103 % of control
- T/C [9]: 107 % of control
- T/C [10]: 96 % of control
- T/C (dose: 300.0 mg/kg/injection, vehicle: saline with Tween-80): 112 % of control
- T/C (dose: 600.0 mg/kg/injection, vehicle: saline with Tween-80): 95 % of control

Structure (SMILES): CCOC(=O)c1cn(C)c2c1C(=O)C(C(=O)OCC)CC(=O)N2 (stereo not drawn)
- T/C (dose: 31.25 mg/kg/injection, vehicle: saline + Tween-80 + alcohol): 100 % of control
- T/C (dose: 62.5 mg/kg/injection, vehicle: saline + Tween-80 + alcohol): 101 % of control
- T/C (dose: 125.0 mg/kg/injection, vehicle: saline + Tween-80 + alcohol): 94 % of control
- T/C (dose: 250.0 mg/kg/injection, vehicle: saline + Tween-80 + alcohol): 92 % of control

Structure (SMILES): CCCC1(c2ccccc2)C(=O)NCNC1=O
- T/C [3]: 99 % of control
- T/C [4]: 95 % of control
- T/C [5]: 88 % of control
- T/C [6]: 88 % of control
- T/C [7]: 88 % of control

Structure (SMILES): O=c1ccn(C2CC3[O][Sn]([c]4ccccc4)([c]4ccccc4)[O]CC3O2)c(=O)[nH]1 (stereo not drawn)
- T/C (dose: 25.0 mg/kg/injection, vehicle: distilled water + Tween-80): 104 % of control
- T/C (dose: 50.0 mg/kg/injection, vehicle: distilled water + Tween-80): 102 % of control
- T/C (dose: 100.0 mg/kg/injection, vehicle: distilled water + Tween-80): 101 % of control
- T/C (dose: 200.0 mg/kg/injection, vehicle: distilled water + Tween-80): 103 % of control
- T/C (dose: 400.0 mg/kg/injection, vehicle: distilled water + Tween-80): 102 % of control

Structure (SMILES): CNC(=O)/C=C/C1=CN2C(=O)c3ccc(C)c(O)c3NC(OC)C2C1 (stereo not drawn)
- T/C (dose: 12.5 micrograms/kg/injection, vehicle: saline): 101 % of control and 108 % of control
- T/C (dose: 25.0 micrograms/kg/injection, vehicle: saline): 104 % of control and 124 % of control
- T/C (dose: 50.0 micrograms/kg/injection, vehicle: saline): 95 % of control and 108 % of control
- T/C (dose: 100.0 micrograms/kg/injection, vehicle: saline): 98 % of control and 115 % of control
- T/C (dose: 200.0 micrograms/kg/injection, vehicle: saline): 112 % of control

Structure (SMILES): C=C(c1ccc(OC)c(OC)c1)c1nccc2cc(OC)c(OC)cc12
- T/C [4]: 102 % of control
- T/C [5]: 119 % of control
- T/C [6]: 98 % of control
- T/C [7]: 102 % of control

Structure (SMILES): CCOC(=O)Nc1cc2c(c(N)n1)N=C(c1ccc3ccccc3c1)CN2
- T/C (dose: 3.75 mg/kg/injection, vehicle: saline with Tween-80): 110 % of control
- T/C (dose: 7.5 mg/kg/injection, vehicle: saline with Tween-80): 108 % of control
- T/C (dose: 15.0 mg/kg/injection, vehicle: saline with Tween-80): 120 % of control
- T/C (dose: 30.0 mg/kg/injection, vehicle: saline with Tween-80): 111 % of control

Structure (SMILES): NC12CC3CC(CC(C3)C1)C2
- T/C [11]: 100 % of control
- T/C [12]: 94 % of control

Structure (SMILES): COc1cc(C(C)c2cc3c(cc2OCCO)OCO3)cc(OC)c1OC (stereo not drawn)
- T/C [13]: 108 % of control
- T/C (dose: 200.0 mg/kg/injection, vehicle: saline with Tween-80): 104 % of control

Structure (SMILES): CCCCCCCC(=O)[O][Hg][CH2]C1COC([CH2][Hg][O]C(=O)CCCCCCC)CO1 (stereo not drawn)
- T/C (dose: 6.25 mg/kg/injection, vehicle: saline with Tween-80): 95 % of control
- T/C (dose: 12.5 mg/kg/injection, vehicle: saline with Tween-80): 86 % of control
- T/C [11]: 86 % of control and 87 % of control
- T/C [12]: 87 % of control and 90 % of control
- T/C [13]: 87 % of control

Structure (SMILES): C1OC1CO[C@@H]1CO[C@H]2[C@@H]1OC[C@H]2OCC1CO1 (stereo partly drawn)
- T/C (dose: 50.0 mg/kg/injection, vehicle: saline): 119 % of control
- T/C (dose: 50.0 mg/kg/injection, vehicle: suspension in saline): 119 % of control
- T/C (dose: 100.0 mg/kg/injection, vehicle: suspension in saline): 150 % of control
- T/C [14]: 186 % of control
- T/C (dose: 200.0 mg/kg/injection, vehicle: suspension in saline): 215 % of control
- T/C [15]: 183 % of control
- T/C (dose: 400.0 mg/kg/injection, vehicle: suspension in saline): 239 % of control

Structure (SMILES): O=C1CCCCCC2=NC12 (stereo not drawn)
- T/C (dose: 6.25 mg/kg/injection, vehicle: Klucel (hydroxypropylcellulose) (HPC)): 98 % of control
- T/C (dose: 12.5 mg/kg/injection, vehicle: Klucel (hydroxypropylcellulose) (HPC)): 100 % of control and 105 % of control
- T/C (dose: 25.0 mg/kg/injection, vehicle: Klucel (hydroxypropylcellulose) (HPC)): 105 % of control and 112 % of control
- T/C [3]: 100 % of control and 113 % of control
- T/C [4]: 103 % of control and 113 % of control

Structure (SMILES): CN(C)C=O
- T/C (dose: 10.0 mg/kg/injection, vehicle: saline): 104 % of control
- T/C [1]: 111 % of control
- T/C [2]: 104 % of control
- T/C (dose: 80.0 mg/kg/injection, vehicle: saline): 100 % of control
- T/C (dose: 100.0 mg/kg/injection, vehicle: saline): 103 % of control
- T/C (dose: 160.0 mg/kg/injection, vehicle: saline): 104 % of control
- T/C [14]: 107 % of control
- T/C [15]: 100 % of control
- T/C (dose: 800.0 mg/kg/injection, vehicle: saline): 107 % of control
- T/C (dose: 1600.0 mg/kg/injection, vehicle: saline): 108 % of control

Structure (SMILES): CCCCCCCCCCCCN1C(C)=CS/C1=C\C=C\c1scc(C)[n+]1CCCCCCCCCCCC
- T/C (dose: 0.75 mg/kg/injection, vehicle: saline with Tween-80): 119 % of control
- T/C (dose: 1.5 mg/kg/injection, vehicle: saline with Tween-80): 116 % of control

Structure (SMILES): Cc1nnc2nc(N)[nH]n2c1=O
- T/C (dose: 25.0 mg/kg/injection, vehicle: water): 97 % of control
- T/C (dose: 50.0 mg/kg/injection, vehicle: water): 104 % of control
- T/C (dose: 100.0 mg/kg/injection, vehicle: water): 96 % of control

Structure (SMILES): COc1ccc(Nc2c3sc4cc(OC)ccc4nc-3c3ccccc3c2=O)cc1
- T/C [8]: 105 % of control
- T/C [9]: 89 % of control
- T/C [10]: 86 % of control
